HELM strings list units from the 5' end as sugar, base in round brackets, then linkage (d deoxyribose, r ribose, m 2'-O-methyl, p phosphodiester). Strings are as the collection lists them; they lack the last nucleoside at the 3' end of the tested compound. [moe] = 2'-O-(2-methoxyethyl) (MOE); [sp] = phosphorothioate linkage; [m5C] = 5-methylcytosine
Biological target: APP
Test: mouse, dose not given
Conditions: ASO

## RNA1{[moe](G)[sp].[moe]([m5C])p.[moe](T)p.[moe](A)p.[moe]([m5C])[sp].d(A)[sp].d(A)[sp].d(T)[sp].d(T)[sp].d(A)[sp].d(T)[sp].d([m5C])[sp].d([m5C])[sp].d(A)[sp].d([m5C])[sp].[moe](A)p.[moe](T)p.[moe](G)[sp].[moe](G)}$$$$ (last 3' nucleoside missing)
  3 h FOB score: 0 score 0-7

From the OligoGym collection
